Results from patent publication US20240299559A1, “COMPOUNDS THAT MEDIATE PROTEIN DEGRADATION AND METHODS OF USE THEREOF” (Monte Rosa Therapeutics, Inc., priority 2021, published 2024).

Tests used:
[1] = target: T1, CDK2 (Homo sapiens, UniProt P24941); assay: CDK2 HiBiT assay (degradation, Dmax); format: cell-based; details: HEK293 clonal lines with CRISPR KI HiBiT tag on CDK2, stably expressing LgBiT; 24 hours incubation
T1 construct: HEK293 clonal lines with CRISPR KI HiBiT tag on CDK2 proteins; host or cells: HEK293 clonal line with CRISPR knock-in HiBiT on CDK2, stably expressing LgBiT
How it was run: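 HEK293 with endogenous HiBiT-tagged CDK2 and stable LgBiT, 5000 cells/well, treated 24 h at 37 °C (compound source plate 30 μM). Luminescence after HiBiT lysis reagent 15 min, normalized to plate controls; 3-parameter logistic fit (Hill slope 1) gives EC50 and Dmax.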

[2] = target: CRBN-DDB1 (Homo sapiens, UniProt Q96SW2); assay: Compound binding to CRBN by HTRF assay; details: CRBN-DDB1 2.5 nM, Cy5-Thalidomide 100 nM probe; Ki from geometric mean of IC50 by Cheng-Prustoff transformation
How it was run: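 HTRF competition used 2.5 nM His-tagged CRBN-DDB1, anti-His terbium cryptate and 100 nM Cy5-thalidomide probe in 20 mM HEPES, 20 mM NaCl, 0.2 mM TCEP, 0.2 mM EDTA, 0.005% Tween20. Compounds ran as 10-point 1:3 series for 30 min at ambient temperature, with the 665/620 nm signal normalized to lenalidomide and DMSO controls. Ki came from geometric-mean IC50 by Cheng-Prusoff.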

CRBN-DDB1, sequence (Q96SW2 whole entry): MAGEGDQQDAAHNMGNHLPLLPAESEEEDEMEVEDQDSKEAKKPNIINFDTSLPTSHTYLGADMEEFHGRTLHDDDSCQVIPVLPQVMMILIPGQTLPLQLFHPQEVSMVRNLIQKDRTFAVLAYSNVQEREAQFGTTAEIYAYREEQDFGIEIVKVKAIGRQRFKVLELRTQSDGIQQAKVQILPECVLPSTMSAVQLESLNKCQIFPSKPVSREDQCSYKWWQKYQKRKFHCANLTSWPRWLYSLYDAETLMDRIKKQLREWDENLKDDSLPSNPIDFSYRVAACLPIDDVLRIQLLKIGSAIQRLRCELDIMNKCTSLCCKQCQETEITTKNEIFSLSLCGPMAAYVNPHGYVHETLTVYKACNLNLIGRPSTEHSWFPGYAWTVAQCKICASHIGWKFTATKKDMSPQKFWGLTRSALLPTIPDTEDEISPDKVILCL
CRBN-DDB1, sequence (Q16531 whole entry partner): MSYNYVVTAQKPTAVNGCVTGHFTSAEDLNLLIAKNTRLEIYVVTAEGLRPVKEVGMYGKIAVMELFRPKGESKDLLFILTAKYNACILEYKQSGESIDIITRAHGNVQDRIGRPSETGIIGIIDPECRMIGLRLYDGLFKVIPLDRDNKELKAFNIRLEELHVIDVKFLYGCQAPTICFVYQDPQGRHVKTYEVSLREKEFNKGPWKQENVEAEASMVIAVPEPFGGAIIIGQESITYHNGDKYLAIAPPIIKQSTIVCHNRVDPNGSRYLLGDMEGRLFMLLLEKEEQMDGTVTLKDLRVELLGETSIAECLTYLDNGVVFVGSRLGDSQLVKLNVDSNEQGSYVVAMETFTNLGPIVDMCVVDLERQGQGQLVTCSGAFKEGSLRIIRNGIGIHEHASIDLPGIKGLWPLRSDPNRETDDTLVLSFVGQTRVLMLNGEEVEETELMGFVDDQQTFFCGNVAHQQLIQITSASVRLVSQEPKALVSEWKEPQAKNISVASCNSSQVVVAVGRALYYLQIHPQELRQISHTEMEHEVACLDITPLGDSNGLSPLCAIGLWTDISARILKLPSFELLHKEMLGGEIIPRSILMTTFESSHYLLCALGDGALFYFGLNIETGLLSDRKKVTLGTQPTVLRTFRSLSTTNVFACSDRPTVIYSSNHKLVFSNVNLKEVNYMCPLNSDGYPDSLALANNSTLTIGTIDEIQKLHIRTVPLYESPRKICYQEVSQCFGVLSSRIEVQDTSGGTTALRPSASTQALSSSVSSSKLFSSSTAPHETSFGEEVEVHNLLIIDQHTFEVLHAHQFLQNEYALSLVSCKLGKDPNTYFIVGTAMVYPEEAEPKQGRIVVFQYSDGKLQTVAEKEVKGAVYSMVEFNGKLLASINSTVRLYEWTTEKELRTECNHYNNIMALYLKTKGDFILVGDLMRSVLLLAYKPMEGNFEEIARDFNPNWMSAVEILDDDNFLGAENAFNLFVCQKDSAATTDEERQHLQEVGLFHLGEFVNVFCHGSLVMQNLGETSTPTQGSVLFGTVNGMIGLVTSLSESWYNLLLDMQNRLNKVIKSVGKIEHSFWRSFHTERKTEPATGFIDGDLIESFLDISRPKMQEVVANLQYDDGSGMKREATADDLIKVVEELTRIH

Row | Compound | Dmax [1] | Ki [2]
1 | O=C1CCC(N2Cc3ccc(CNC(=O)OCc4ccc(C(F)(F)F)cc4)cc3C2=O)C(=O)N1 (stereo not drawn) [Compound 59, [4-(trifluoromethyl)phenyl]methyl N-{[2-(2,6-dioxopiperidin-3-yl)-3-oxo-2,3-dihydro-1H-isoindol-5-yl]methyl}carbamate] | 10 to 50% | 100 to 1000 nM
2 | O=C1CCC(N2Cc3ccc(CNC(=O)OCc4ccc(C5CC5)cc4)cc3C2=O)C(=O)N1 (stereo not drawn) [Compound 64, (4-cyclopropylphenyl)methyl N-{[2-(2,6-dioxopiperidin-3-yl)-3-oxo-2,3-dihydro-1H-isoindol-5-yl]methyl}carbamate] | 10 to 50% | 100 to 1000 nM
3 | CCC(COC(=O)NCc1ccc2c(c1)C(=O)N(C1CCC(=O)NC1=O)C2)c1ccccc1 (stereo not drawn) [Compound 67, 2-phenylbutyl N-{[2-(2,6-dioxopiperidin-3-yl)-3-oxo-2,3-dihydro-1H-isoindol-5-yl]methyl}carbamate] | 10 to 50% | 100 to 1000 nM
4 | CC[C@H](Cc1ccccc1)OC(=O)NCc1ccc2c(c1)C(=O)N(C1CCC(=O)NC1=O)C2 (stereo partly drawn) [Compound 68, (2R)-1-phenylbutan-2-yl N-{[2-(2,6-dioxopiperidin-3-yl)-3-oxo-2,3-dihydro-1H-isoindol-5-yl]methyl}carbamate] | ≤ 10% | 100 to 1000 nM
5 | O=C1CCC(N2Cc3ccc(CNC(=O)OCc4ccc(OC(F)(F)F)cc4)cc3C2=O)C(=O)N1 (stereo not drawn) [Compound 69, 4-(trifluoromethoxy)benzyl ((2-(2,6-dioxopiperidin-3-yl)-3-oxoisoindolin-5-yl)methyl)carbamate] | 10 to 50% | 100 to 1000 nM
6 | N#Cc1cc(CNc2nnc(-c3ccccc3)o2)cc2c1CN(C1CCC(=O)NC1=O)C2=O (stereo not drawn) [Compound 70, 2-(2,6-dioxopiperidin-3-yl)-1-oxo-6-(((5-phenyl-1,3,4-oxadiazol-2-yl)amino)methyl)isoindoline-4-carbonitrile] | 10 to 50% | 100 to 1000 nM
7 | O=C1CCC(N2Cc3ccc(CNc4nnc(-c5ccc(OC(F)(F)F)cc5)o4)cc3C2=O)C(=O)N1 (stereo not drawn) [Compound 71, 3-(1-oxo-6-(((5-(4-(trifluoromethoxy)phenyl)-1,3,4-oxadiazol-2-yl)amino)methyl)isoindolin-2-yl)piperidine-2,6-dione] | 50 to 80% | 100 to 1000 nM
8 | O=C1CCC(N2Cc3c(Cl)cc(CNc4nnc(-c5ccc(OC(F)(F)F)cc5)o4)cc3C2=O)C(=O)N1 (stereo not drawn) [Compound 73, 3-(4-chloro-1-oxo-6-(((5-(4-(trifluoromethoxy)phenyl)-1,3,4-oxadiazol-2-yl)amino)methyl)isoindolin-2-yl)piperidine-2,6-dione] | 50 to 80% | ≤ 100 nM
9 | N#Cc1cc(CNc2nnc(-c3ccc(OC(F)(F)F)cc3)o2)cc2c1CN(C1CCC(=O)NC1=O)C2=O (stereo not drawn) [Compound 74, 2-(2,6-dioxopiperidin-3-yl)-1-oxo-6-(((5-(4-(trifluoromethoxy)phenyl)-1,3,4-oxadiazol-2-yl)amino)methyl)isoindoline-4-carbonitrile] | 10 to 50% | 100 to 1000 nM
10 | O=C1CCC(N2Cc3ccc(CNc4nnc(-c5ccc(OC(F)(F)F)cc5)o4)c(O)c3C2=O)C(=O)N1 (stereo not drawn) [Compound 75, 3-(7-hydroxy-1-oxo-6-(((5-(4-(trifluoromethoxy)phenyl)-1,3,4-oxadiazol-2-yl)amino)methyl)isoindolin-2-yl)piperidine-2,6-dione] | 10 to 50% | 100 to 1000 nM

The remaining lines, values ahead:

Row | Dmax [1] | Ki [2] | Compound
11 | 10 to 50% | ≤ 100 nM | COc1ccc(-c2cccc(COC(=O)NCc3ccc4c(c3)C(=O)N(C3CCC(=O)NC3=O)C4)c2)cc1 (stereo not drawn) [Compound 58, {4′-methoxy-[1,1′-biphenyl]-3-yl}methyl N-{[2-(2,6-dioxopiperidin-3-yl)-3-oxo-2,3-dihydro-1H-isoindol-5-yl]methyl}carbamate]
12 | 10 to 50% | ≤ 100 nM | CC(C)c1ccc(COC(=O)NCc2ccc3c(c2)C(=O)N(C2CCC(=O)NC2=O)C3)cc1 (stereo not drawn) [Compound 60, [4-(propan-2-yl)phenyl]methyl N-{[2-(2,6-dioxopiperidin-3-yl)-3-oxo-2,3-dihydro-1H-isoindol-5-yl]methyl}carbamate]
13 | 10 to 50% | ≤ 100 nM | O=C1CCC(N2Cc3ccc(CNC(=O)OCc4ccc(OCC(F)(F)F)nc4)cc3C2=O)C(=O)N1 (stereo not drawn) [Compound 61, [6-(2,2,2-trifluoroethoxy)pyridin-3-yl]methyl N-{[2-(2,6-dioxopiperidin-3-yl)-3-oxo-2,3-dihydro-1H-isoindol-5-yl]methyl}carbamate]
14 | 10 to 50% | ≤ 100 nM | O=C1CCC(N2Cc3ccc(CNC(=O)OCc4ccc(OCC(F)(F)F)cc4)cc3C2=O)C(=O)N1 (stereo not drawn) [Compound 62, [4-(2,2,2-trifluoroethoxy)phenyl]methyl N-{[2-(2,6-dioxopiperidin-3-yl)-3-oxo-2,3-dihydro-1H-isoindol-5-yl]methyl}carbamate]
15 | 10 to 50% | ≤ 100 nM | CC(C)(c1ccc(COC(=O)NCc2ccc3c(c2)C(=O)N(C2CCC(=O)NC2=O)C3)cc1)C(F)(F)F (stereo not drawn) [Compound 63, [4-(1,1,1-trifluoro-2-methylpropan-2-yl)phenyl]methyl N-{[2-(2,6-dioxopiperidin-3-yl)-3-oxo-2,3-dihydro-1H-isoindol-5-yl]methyl}carbamate]
16 | 10 to 50% | ≤ 100 nM | O=C1CCC(N2Cc3ccc(CNC(=O)OCc4ccc(OC5CCOCC5)nc4)cc3C2=O)C(=O)N1 (stereo not drawn) [Compound 65, [6-(oxan-4-yloxy)pyridin-3-yl]methyl N-{[2-(2,6-dioxopiperidin-3-yl)-3-oxo-2,3-dihydro-1H-isoindol-5-yl]methyl}carbamate]
17 | 10 to 50% | ≤ 100 nM | O=C1CCC(N2Cc3ccc(CNC(=O)OCc4ccc(C(F)(F)F)nc4)cc3C2=O)C(=O)N1 (stereo not drawn) [Compound 66, [6-(trifluoromethyl)pyridin-3-yl]methyl N-{[2-(2,6-dioxopiperidin-3-yl)-3-oxo-2,3-dihydro-1H-isoindol-5-yl]methyl}carbamate]
18 | 10 to 50% | ≤ 100 nM | O=C1CCC(N2Cc3ccc(CNc4nnc(-c5ccccc5)o4)cc3C2=O)C(=O)N1 (stereo not drawn) [Compound 72, 3-(1-oxo-6-(((5-phenyl-1,3,4-oxadiazol-2-yl)amino)methyl)isoindolin-2-yl)piperidine-2,6-dione]
